Consider eleven compounds from publication PMC6270246, “Anthraquinones of the Roots of Pentas micrantha” (Molecules, 2012).

A short description of series [1]: Cytotoxicity assay (PrestoBlue cell viability, 48 h). Particulars: human, MCF-7 breast cancer cells, MCF-7 cells, mean of at least six independent experiments, read-out: CC50 (cytotoxic concentration). Format: cell-based. On the procedure:
MCF-7 human breast cancer cells were cultured in Dulbecco’s modified eagle medium (DMEM) supplemented with 10% (v/v) fetal bovine serum, 2 mM L-glutamine, 100 units/mL penicillin and 100 µg/mL streptomycin at 37 °C in humidified 5% CO2. For cytotoxicity assays, cells were seeded in 96-well plates at optimal cell density to ensure exponential growth for the duration of the assay. After a 24-h preincubation growth, the medium was replaced with experimental medium containing the appropriate drug concentrations or vehicle controls (0.1% or 1.0% v/v DMSO). After 48 h incubation, cell viability was measured using PrestoBlue™ Cell Viability Reagent (Invitrogen Ab, Lidingö, Sweden) according to the manufacturer’s instructions. […] Results were expressed as the mean ± standard error for six replicates as a percentage of vehicle control (taken as 100%). Experiments were performed independently at least six times. Statistical analyses were performed using a two-tailed Student’s t-test. p < 0.05 was considered to be statistically significant.

Series [2] deals with Sierra Leone D6 chloroquine-sensitive Plasmodium falciparum strain. The arrangement: method as in PMID 21979929. The following applies: P. falciparum D6 strain; in vitro; bioactivity previously published; cited from earlier work.
For series [3], the system named is MCF-7 human breast cancer cells. The arrangement: method as in PMID 21979929. The following applies: MCF-7 cells; bioactivity previously published; read-out: CC50 (cytotoxic concentration); cited from earlier work.
For series [4], the system named is Indochina W2 chloroquine-resistant Plasmodium falciparum strain. The arrangement: method as in PMID 21979929. The following applies: P. falciparum W2 strain; in vitro; bioactivity previously published; cited from earlier work.
The test system is the same in series [5]. As to the kind of experiment: Malaria SYBR Green I-based in vitro drug susceptibility assay, W2 strain. In kind it is cell-based. As for the experimental part: (§1) For cytotoxicity (CC50) assay 1-isopropyl-3-(pyridin-4-ylethynyl)-1H-pyrazolo[3,4-d]pyrimidin-4-amine was used as reference substance.
(§2) Sierra Leone D6 chloroquine-sensitive and the Indochina W2 chloroquine-resistant Plasmodium falciparum strains (donated by the Walter Reed Army Institute for Research [WRAIR], 503 Robert Grant Avenue, Silver Spring, MD 20910, USA) were maintained in continuous culture to attain replication robustness prior to assays. Drug susceptibility was tested by the Malaria SYBR Green I-based in vitro assay technique.

Series [6] concerns Sierra Leone D6 chloroquine-sensitive Plasmodium falciparum strain. As to the kind of experiment: Malaria SYBR Green I-based in vitro drug susceptibility assay, D6 strain. Format: cell-based. On the procedure:
as §1, §2

Read-outs that look alike come from different tables or passages of the source.

As to `CC(C)n1nc(C#Cc2ccncc2)c2c(N)ncnc21` [1-isopropyl-3-(pyridin-4-ylethynyl)-1H-pyrazolo[3,4-d]pyrimidin-4-amine, reference compound], in series [1], the CC50 at 48 h was 5 µM.
Usually IC50 stands for the midpoint of a concentration-inhibition curve. Turning to `Cc1ccc2c(c1)C(=O)c1ccccc1C2=O` [Compound 1, tectoquinone], the values for the IC50 in series [2] and in series [4] were 30.36 ± 0.01 µM and 48.56 ± 0.01 µM, respectively. Also, in series [3], the CC50 is more than 100 µM.
As for `COCc1c(O)cc2c(c1O)C(=O)c1ccccc1C2=O` [Compound 2, lucidin-ω-methyl ether], the IC50 is 42.54 ± 0.01 µM in series [2] and 46.44 ± 0.01 µM in series [4]. Moreover, in series [3], the CC50 is more than 352 µM.
As for `COc1c(CO)c(O)cc2c1C(=O)c1ccccc1C2=O` [Compound 3, damnacanthol], the figures for the IC50 in series [2] and in series [4] were 56.6 µM and 110.6 ± 0.01 µM, respectively. Moreover, in series [3], the CC50 was 238 µM.
Consider `COc1c(C)c(O)cc2c1C(=O)c1ccccc1C2=O` [Compound 4, rubiadin-1-methyl ether], for which the IC50 was 45.07 ± 0.01 µM in series [2] and 70.6 µM in series [4]. Besides, the CC50 in series [3] was 208 µM.
On to `Cc1c(O)cc2c(c1O)C(=O)c1ccccc1C2=O` [Compound 5, rubiadin], for which the IC50 in series [2] was 21.5 µM; in series [4], 31.91 ± 0.01 µM. Also, in series [3], the CC50 is 310 µM.
As for `COCc1c(O)cc2c(c1O)C(=O)c1ccc(O)c(O)c1C2=O` [Compound 6, 1,3,5,6-tetrahydroxy-2-(methoxymethyl)-9,10-anthraquinone], in series [1], the CC50 at 48 h is 258 µM. The IC50 was 35.41 ± 0.01 µM in series [5] (P. falciparum W2 strain, in vitro, mean of at least 3 independent experiments, read-out: IC50 W2) and 31.84 ± 0.01 µM in series [6] (P. falciparum D6 strain, in vitro, mean of at least 3 independent experiments, read-out: IC50 D6).
As for `COc1c(C=O)c(O)cc2c1C(=O)c1ccccc1C2=O` [Compound 7, damnacanthal], the values for the IC50 in series [2] and in series [4] were 27.2 µM and 38.6 µM, respectively. Moreover, the CC50 in series [3] was 316 µM.
With `COc1c(CO)c(O)cc2c1C(=O)c1ccc(O)c(O)c1C2=O` [Compound 8, 5,6-dihydroxydamnacanthol], the results for the IC50 in series [2] and in series [4] were 47.53 ± 0.01 µM and 61.17 ± 0.02 µM, respectively. In series [3], the CC50 was more than 450 µM.
Regarding `CCN(CC)CCCC(C)Nc1ccnc2cc(Cl)ccc12` (centres unmarked) [chloroquine], the IC50 in series [5] (W2, read-out: IC50 (W2)) is 0.522 µM; in series [6] (D6, read-out: IC50 (D6)), 0.0147 µM.
For `OC(c1cc(C(F)(F)F)nc2c(C(F)(F)F)cccc12)C1CCCCN1` (centres unmarked) [mefloquine], the IC50 in series [5] (P. falciparum W2 strain, positive controls, read-out: IC50 (W2)) amounted to 0.00665 µM; in series [6] (P. falciparum D6 strain, positive controls, read-out: IC50 (D6)), 0.0876 µM.
